{
  "source": "patent US8206732B2",
  "about": "“Pyrithione biocides enhanced by silver, copper, or zinc ions” (Arch Chemicals, Inc., priority 1999, dated 2012)",
  "key": {"[1]": {"system": "Staphylococcus aureus ATCC 27217", "experiment": "Zone of inhibition test (paper disc on TSA)", "type": "cell-based", "settings": "6.5 mm discs; 0.135% pyrithione, 0.1% ZnCl2 or both; 28° C., 24 hr"}, "[2]": {"system": "Pseudomonas aeruginosa NCIMB 6749", "experiment": "Zone of inhibition test (paper disc on TSA)", "type": "cell-based", "settings": "6.5 mm discs; 0.135% pyrithione, 0.1% ZnCl2 or both; 28° C., 24 hr"}, "[3]": {"system": "mixed bacteria (Pseudomonas aeruginosa 9027, Escherichia coli 8739, Pseudomonas fluorescens 12201, Pseudomonas rubescens 12202, Pseudomonas putida)", "experiment": "Various mixtures of NaPT and Zn(II) against bacteria in 5% metalworking fluid (Example 8, Table 10a)", "type": "cell-based, Pseudomonas spp."}, "Fusarium sp. biofilm": {"system": "Fusarium sp. biofilm", "experiment": "Viable biofilm cells on discs in metalworking fluid (Example 5)", "type": "cell-based", "settings": "polycarbonate disc, 100 PPM NaPT, 10 PPM Zn (II) or both, 4 days after treatment", "experimental": "Experiments were conducted to investigate the efficacy of the composition of the present invention to inhibit the survival, growth, and proliferation of free-living and biofilm populations of bacteria and fungi in metalworking fluids. […] Metalworking fluids (MWF) employed included 5% soluble oil MWF, 5% semi-synthetic MWF, or 5% synthetic MWS. For testing against bacteria, metalworking fluids were supplemented with 2% (weight-to-weight ratio (w:w)) of 5 g/L yeast extract (Difco), Metalworking fluids were supplemented with 2% (weight-to-weight (w:w)) of Tryptic Soy Broth (Difco) for fungal tests.\nFor each experiment, three ml of a 5% metalworking fluid was added to each of twelve, sterile, 16 mm×150 mm glass culture tubes. […] Fusarium sp. was added to the tubes to final concentrations of 10^5 spores/ml for the fungal tests. Tubes incubated for 3 days at 28° C. and 180 rpms.\nAfter the treatments additions were performed, the culture tubes resumed incubation at 28° C., 180 rpms for an additional 4 days.\nAfter 4 days, culture tubes were removed from the incubator and viable counts of organisms from the bulk MWF fluid and the biofilm were determined using serial dilution and drop plating techniques. For biofilms, polycarbonate discs were removed from tubes, dip-rinsed in three successive washes of de-ionized water to remove loosely attached cells, and transferred to 25 mm×150 mm culture tubes containing 10 ml of sterile, de-ionized water. Biofilms were removed from discs and resuspended by vortexing tubes for 30 seconds. Bacteria were plated on to R2A Agar plates and incubated at 37° C. Fungi were plated onto Malt Agar plates and incubated at 28° C. Mean colony forming units per ml (for bulk) and per square cm (cm^2) biofilm were determined for each experimental treatment."}, "[4]": {"system": "E. coli 8739 free-living cells", "experiment": "Viable free-living cells in bulk metalworking fluid (Example 5)", "type": "cell-based, Escherichia coli", "settings": "100 PPM NaPT, 10 PPM Zn (II) or both, 4 days after treatment"}, "Escherichia coli 10536": {"system": "Escherichia coli 10536", "experiment": "Checkerboard MIC test, pyrithiones with silver salts", "type": "cell-based", "settings": "NaPT alone or in the inhibitory mixture with silver salt; TSB pH 7.3, 35° C., 1 to 2 days"}, "[5]": {"system": "Pseudomonas aeruginosa NCIMB 6749", "experiment": "Checkerboard MIC test, pyrithiones with zinc salts", "type": "cell-based", "settings": "pyrithione alone or pyrithione concentration in the inhibitory mixture; TSB, 28 C, 3 days"}, "[6]": {"system": "Pseudomonas aeruginosa ATCC 9027", "experiment": "MIC in Tryptic Soy Broth, microtiter (Example 1)", "type": "cell-based", "settings": "28° C."}, "E. coli 8739 biofilm": {"system": "E. coli 8739 biofilm", "experiment": "Viable biofilm cells on discs in metalworking fluid (Example 5)", "type": "cell-based, Escherichia coli", "settings": "polycarbonate disc, 100 PPM NaPT, 10 PPM Zn (II) or both, 4 days after treatment"}},
  "data": [
    {"smiles": "[Na+].[O-][n+]1ccccc1[S-]", "note": "[NaPT, sodium pyrithione]", "values": [
      {"measurement": "Zone of Inhibition", "setting": "[1]", "result": 31, "unit": "mm"},
      {"measurement": "Zone of Inhibition", "setting": "[2]", "result": 8, "unit": "mm"},
      {"measurement": "Bacteria/ml", "setting": "[3]; semi-synthetic, NaPT 100 PPM, Day 1", "result": "1.8 × 10^5 Bacteria/ml"},
      {"measurement": "Bacteria/ml", "setting": "[3]; semi-synthetic, NaPT 100 PPM, Day 1, tube of the Day 1/Day 4 series", "result": "1.7 × 10^4 Bacteria/ml"},
      {"measurement": "Bacteria/ml", "setting": "[3]; semi-synthetic, NaPT 100 PPM, Day 2", "result": "1.9 × 10^5 Bacteria/ml"},
      {"measurement": "Bacteria/ml", "setting": "[3]; semi-synthetic, NaPT 100 PPM, Day 4", "result": "1.2 × 10^4 Bacteria/ml"},
      {"measurement": "Bacteria/ml", "setting": "[3]; semi-synthetic, NaPT 100 PPM, Day 7", "result": 510, "unit": "Bacteria/ml"},
      {"measurement": "Bacteria/ml", "setting": "[3]; semi-synthetic, NaPT 300 PPM, Day 1", "result": "1.2 × 10^5 Bacteria/ml"},
      {"measurement": "Bacteria/ml", "setting": "[3]; semi-synthetic, NaPT 300 PPM, Day 2", "result": 0, "unit": "Bacteria/ml"},
      {"measurement": "Bacteria/ml", "setting": "[3]; semi-synthetic, NaPT 300 PPM, Day 7", "result": 0, "unit": "Bacteria/ml"},
      {"measurement": "Bacteria/ml", "setting": "[3]; semi-synthetic, NaPT 500 PPM, Day 2", "result": 0, "unit": "Bacteria/ml"},
      {"measurement": "Bacteria/ml", "setting": "[3]; semi-synthetic, NaPT 500 PPM, Day 7", "result": 0, "unit": "Bacteria/ml"},
      {"measurement": "Bacteria/ml", "setting": "[3]; soluble oil, NaPT 100 PPM, Day 1", "result": "2.4 × 10^5 Bacteria/ml"},
      {"measurement": "Bacteria/ml", "setting": "[3]; soluble oil, NaPT 100 PPM, Day 1, tube of the Day 1/Day 4 series", "result": "5.9 × 10^6 Bacteria/ml"},
      {"measurement": "Bacteria/ml", "setting": "[3]; soluble oil, NaPT 100 PPM, Day 2", "result": "6.0 × 10^3 Bacteria/ml"},
      {"measurement": "Bacteria/ml", "setting": "[3]; soluble oil, NaPT 100 PPM, Day 4", "result": "1.5 × 10^6 Bacteria/ml"},
      {"measurement": "Bacteria/ml", "setting": "[3]; soluble oil, NaPT 100 PPM, Day 7", "result": "2.0 × 10^4 Bacteria/ml"},
      {"measurement": "Bacteria/ml", "setting": "[3]; soluble oil, NaPT 300 PPM, Day 1", "result": "7.1 × 10^4 Bacteria/ml"},
      {"measurement": "Bacteria/ml", "setting": "[3]; soluble oil, NaPT 300 PPM, Day 2", "result": "9.0 × 10^3 Bacteria/ml"},
      {"measurement": "Bacteria/ml", "setting": "[3]; soluble oil, NaPT 300 PPM, Day 7", "result": 0, "unit": "Bacteria/ml"},
      {"measurement": "Bacteria/ml", "setting": "[3]; soluble oil, NaPT 500 PPM, Day 2", "result": 450, "unit": "Bacteria/ml"},
      {"measurement": "Bacteria/ml", "setting": "[3]; soluble oil, NaPT 500 PPM, Day 7", "result": 0, "unit": "Bacteria/ml"},
      {"measurement": "Bacteria/ml", "setting": "[3]; synthetic, NaPT 100 PPM, Day 1", "result": "2.9 × 10^6 Bacteria/ml"},
      {"measurement": "Bacteria/ml", "setting": "[3]; synthetic, NaPT 100 PPM, Day 1, tube of the Day 1/Day 4 series", "result": "2.1 × 10^6 Bacteria/ml"},
      {"measurement": "Bacteria/ml", "setting": "[3]; synthetic, NaPT 100 PPM, Day 2", "result": "1.7 × 10^5 Bacteria/ml"},
      {"measurement": "Bacteria/ml", "setting": "[3]; synthetic, NaPT 100 PPM, Day 4", "result": "2.0 × 10^5 Bacteria/ml"},
      {"measurement": "Bacteria/ml", "setting": "[3]; synthetic, NaPT 100 PPM, Day 7", "result": "1.5 × 10^4 Bacteria/ml"},
      {"measurement": "Bacteria/ml", "setting": "[3]; synthetic, NaPT 300 PPM, Day 1", "result": "5.0 × 10^4 Bacteria/ml"},
      {"measurement": "Bacteria/ml", "setting": "[3]; synthetic, NaPT 300 PPM, Day 2", "result": "4.0 × 10^3 Bacteria/ml"},
      {"measurement": "Bacteria/ml", "setting": "[3]; synthetic, NaPT 300 PPM, Day 7", "result": 0, "unit": "Bacteria/ml"},
      {"measurement": "Bacteria/ml", "setting": "[3]; synthetic, NaPT 500 PPM, Day 1", "result": "1.2 × 10^5 Bacteria/ml"},
      {"measurement": "Bacteria/ml", "setting": "[3]; synthetic, NaPT 500 PPM, Day 2", "result": "1.0 × 10^3 Bacteria/ml"},
      {"measurement": "Bacteria/ml", "setting": "[3]; synthetic, NaPT 500 PPM, Day 7", "result": 50, "unit": "Bacteria/ml"},
      {"measurement": "viable biofilm microorganisms", "setting": "Fusarium sp. biofilm; 5% semisynth. MWF", "result": 18, "unit": "cells/cm^2"},
      {"measurement": "viable biofilm microorganisms", "setting": "Fusarium sp. biofilm; 5% solub. oil MWF", "result": "4.6 × 10^5 cells/cm^2"},
      {"measurement": "viable biofilm microorganisms", "setting": "Fusarium sp. biofilm; 5% synthetic MWF", "result": "7.3 × 10^4 cells/cm^2"},
      {"measurement": "viable biofilm microorganisms", "setting": "Fusarium sp. biofilm; 100% TSB", "result": 96, "unit": "cells/cm^2"},
      {"measurement": "viable free-living microorganisms", "setting": "[4]; 5% solub. oil MWF", "result": "5.3 × 10^7 cells/ml"},
      {"measurement": "viable free-living microorganisms", "setting": "[4]; 10% TSB", "result": "9.1 × 10^8 cells/ml"},
      {"measurement": "MIC NaPT", "setting": "Escherichia coli 10536", "result": 16, "unit": "ppm"},
      {"measurement": "MIC Pyrithione", "setting": "[5]", "result": 128, "unit": "ppm"},
      {"measurement": "MIC NaPT (with 0.5 ppm Cu)", "setting": "[6]; TSB with 0.5 ppm Cu (II), 5-6 days", "result": 256, "unit": "ppm"},
      {"measurement": "MIC", "setting": "[6]; TSB, incubated 5-6 days, single agent (NaPT without Cu)", "result": 256, "unit": "ppm"},
      {"measurement": "viable biofilm microorganisms", "setting": "E. coli 8739 biofilm; 5% solub. oil MWF", "result": "1.6 × 10^5 cells/cm^2"},
      {"measurement": "viable biofilm microorganisms", "setting": "E. coli 8739 biofilm; 10% TSB", "result": "1.4 × 10^6 cells/cm^2"}
    ]}
  ]
}
